Publication PMC8279156, “Design, synthesis, HER2 inhibition and anticancer evaluation of new substituted 1,5-dihydro-4,1-benzoxazepines” (Journal of Enzyme Inhibition and Medicinal Chemistry, 2021)
Read-outs that look alike come from different tables or passages of the source.

What was measured:
[1] = system: A-375 human melanoma cancer cell line; experiment: Proliferation assay (sulphorhodamine-B) in A-375; type: cell-based; details: 72 h of treatment, mean ± SD, read-out: IC50 A375
Method: MCF-7, HCT-116, A-375 and SKBR cells were grown at 37 °C in an atmosphere containing 5% CO2, with Dulbecco’s modified Eagle Medium (DMEM) (Gibco, Grand Island, NY) supplemented with 10% heat-inactivated foetal bovine serum (FBS) (Gibco), 2% L-glutamine, 2.7% sodium bicarbonate, 1% Hepes buffer, 40 mg/L gentamicin and 500 mg/L ampicillin.
Compounds were dissolved in DMSO and stored at −20 °C. For each experiment, the stock solutions were further diluted in medium to obtain the desired concentrations. The final solvent concentration in cell culture was ≤ 0.1% v/v of DMSO, a concentration without any effect on cell replication. Parallel cultures of MCF-7, HCT-116, A375 and SKBR-3 cells in medium with DMSO were used as controls.
The effect of the compounds on cell viability was assessed using the sulphorhodamine-B colorimetric assay. Cells suspension (1 × 10^3 cells/well) were seeded onto 24-well plates and incubated for 24 h. The cells were then treated with different concentrations of drugs in their respective culture medium and maintained with the treatment for 3 days. Three days later, wells were aspirated and fresh medium and drug were added. Then cell cultures were maintained for 3 additional days. Thereafter, a Titertek Multiscan (Flow, Irvine, CA) at 492 nm was used. The linearity of the SRB assay was evaluated with a cell number for each cell stock before each cell growth experiment. The IC50 values were calculated from semi-logarithmic dose–response curves by linear interpolation. All the experiments were plated in triplicate wells and were carried out twice.
We then investigated the effects of the target compounds on cell proliferation on the human breast cancer cell lines MCF-7 and SKBR-3, the human colon carcinoma cell line HCT-116 and the human malignant melanoma cell line A-375. The antiproliferative activity of 7–9 was evaluated using sulphorhodamine-B colorimetric assay after 72 h of treatment (Table 3).
All experiments were conducted in duplicate and gave similar results. The data are mean ± SD of three independent determinations. MCF-7: human breast cancer cell line; SKBR3: human breast cancer cell line; HCT-116: human colon cancer cell line and A-375: human melanoma cancer cell line.

[2] = system: MCF-7 human breast cancer cell line; details: cited from earlier work
isolated HER2 = isolated HER2 (Homo sapiens, UniProt P04626); experiment: HER2 inhibition assay, radiometric protein kinase assay (33PanQinase Activity Assay); type: biochemical; details: isolated HER2, radiometric assay, 10 concentrations in singlicate
Method: The IC50 profile of the target compounds was determined using isolated HER2. IC50 values were measured by testing 10 concentrations (1 × 10 ^−4 M to 3 × 10 ^−9 M) of each compound in singlicate. A radiometric protein kinase assay (33PanQinase® Activity Assay) was used for measuring the kinase activity of HER2. The assay was performed in 96-well FlashPlatesTM from PerkinElmer (Boston, MA) in a 50 µl reaction volume. […] The reaction cocktails were incubated at 30 °C for 60 min. The reaction was halted with 50 µl of 2% (v/v) H3PO4, plates were aspirated and washed two times with 200 µl 0.9% (w/v) NaCl. Incorporation of ^33Pi was determined with a microplate scintillation counter (Microbeta, Wallac, Waltham, MA).
Human epidermal growth factor receptor 2 (HER2) is overexpressed in about 20% of all breast cancers. […] This prompted us to evaluated compounds 7–9 for their in vitro HER2 inhibitory effect. The IC50 profile of the target compounds was determined against isolated HER2 using a radiometric assay (Table 1).

[3] = system: SKBR3 human breast cancer cell line; set-up: method as in PMID 24946763; details: mean ± SD; cited from earlier work
[4] = system: HCT-116 human colon cancer cell line; set-up: method as in PMID 21126804; details: mean ± SD; cited from earlier work

Chain of isolated HER2 (P04626 23-1255): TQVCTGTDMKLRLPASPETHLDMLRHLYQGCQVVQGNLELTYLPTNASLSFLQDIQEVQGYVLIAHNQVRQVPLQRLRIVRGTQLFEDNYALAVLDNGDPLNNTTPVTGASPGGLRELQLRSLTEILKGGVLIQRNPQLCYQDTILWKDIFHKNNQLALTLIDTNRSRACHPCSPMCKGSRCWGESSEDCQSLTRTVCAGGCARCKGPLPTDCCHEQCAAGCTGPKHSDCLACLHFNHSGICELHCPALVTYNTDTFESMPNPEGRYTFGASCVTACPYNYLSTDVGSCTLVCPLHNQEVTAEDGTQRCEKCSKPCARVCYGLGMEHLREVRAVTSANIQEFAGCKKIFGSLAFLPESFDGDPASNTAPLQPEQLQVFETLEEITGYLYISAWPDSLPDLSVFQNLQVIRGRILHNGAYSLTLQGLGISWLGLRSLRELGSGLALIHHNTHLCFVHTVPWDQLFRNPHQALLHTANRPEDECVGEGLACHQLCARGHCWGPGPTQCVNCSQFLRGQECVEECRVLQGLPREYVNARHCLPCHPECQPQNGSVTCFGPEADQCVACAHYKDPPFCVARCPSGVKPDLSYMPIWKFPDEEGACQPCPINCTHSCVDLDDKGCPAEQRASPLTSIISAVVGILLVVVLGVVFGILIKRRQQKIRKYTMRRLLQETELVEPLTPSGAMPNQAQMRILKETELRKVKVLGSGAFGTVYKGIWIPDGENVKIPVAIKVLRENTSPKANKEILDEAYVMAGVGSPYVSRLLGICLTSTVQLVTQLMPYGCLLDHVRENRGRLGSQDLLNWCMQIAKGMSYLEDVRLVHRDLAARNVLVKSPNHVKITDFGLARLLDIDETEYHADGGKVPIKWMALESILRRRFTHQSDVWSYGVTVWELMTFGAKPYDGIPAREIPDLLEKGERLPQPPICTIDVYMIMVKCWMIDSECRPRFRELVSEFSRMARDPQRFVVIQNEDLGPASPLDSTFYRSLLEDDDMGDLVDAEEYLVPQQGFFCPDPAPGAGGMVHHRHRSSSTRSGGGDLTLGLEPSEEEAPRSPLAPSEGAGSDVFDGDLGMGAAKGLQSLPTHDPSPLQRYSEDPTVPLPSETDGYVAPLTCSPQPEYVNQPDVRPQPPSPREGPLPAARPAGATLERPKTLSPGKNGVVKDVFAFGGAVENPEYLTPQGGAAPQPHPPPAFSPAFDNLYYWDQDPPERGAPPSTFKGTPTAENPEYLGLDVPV

IC50 [1]: 1050 ± 10 nM
IC50 (isolated HER2): 27900 nM
Structure (SMILES): O=[N+]([O-])c1ccc(S(=O)(=O)N2CC(n3cnc4c(Cl)nc(Cl)nc43)OCc3ccccc32)cc1 (racemic) [Compound 3, (RS)-2,6-dichloro-9-[1-(p-nitrobenzenesulfonyl)-1,2,3,5-tetrahydro-4,1-benzoxazepine-3-yl]-9H-purine]
IC50 ([2]; mean ± SD, read-out: IC50 MCF-7): 350 ± 10 nM
IC50 ([2]; previously described compounds, introduction, no reference number printed at the values, read-out: IC50 against the MCF-7 cell line): 355 nM
IC50 [3]: 330 nM
IC50 [4]: 570 ± 20 nM
